The test system of this experiment is circulating macrophage/monocyte population. The experiment in a line: Monocyte/macrophage depletion with gadolinium chloride in the NaIO3 model. It is filed as in vivo, rat. From the text: To determine the identity of the autofluorescent cells that coincide with the reticular pattern of FAF, excised retina were stained for with markers of the innate immune system, avoiding the 488 nm channel. Iba1 is a pan-microglial/macrophage marker and in the rat retina; antibodies against it identify the major phagocytic cell populations. […] Further, when compared against photoreceptor nuclear staining, this curvilinear pattern is seen to lie interposed between folds of the deformed ONL. This pattern of Iba1^+ cells corresponds with the pattern of hyperfluorescence observed in vivo by FAF imaging, and with the pattern of autofluorescent cells in excised retina. […] Importantly, at 7 days after NaIO3, all RPE cells are absent from the posterior eye cup, confirming that these cells cannot be responsible for the observed FAF. Also, identification of the autofluorescent cells as phagocytic was confirmed by comparison of imaging to preparations in which monocyte/macrophage depletion has been undertaken. Such depletion was achieved by treatment with gadolinium chloride (GAD). […]

“Also recorded” adds a separate entry of the source.

Turning to `[Cl][Gd]([Cl])[Cl]` [GAD, gadolinium chloride], the area of damage entry (7 days after NaIO3 and simultaneous GAD depletion) is recorded as “smaller areas of damage”. The “FAF pattern of NaIO3-induced outer retinal damage” value (GAD-treated vs untreated, after NaIO3) is “far less well defined reticular patterns of FAF; also recorded: profound alteration of the NaIO3-induced pattern of FAF and DNIRA; also recorded: less well-demarcated borders”.
